Measured values: patent US8921124B2, “Pyrazole-based cyanine dye” (Wako Pure Chemical Industries, Ltd., priority 2006, dated 2014)

Experiments:
[1] = Fluorescence characteristics (max. absorption, excitation and fluorescence wavelengths, molar absorption coefficient); type: physicochemical
Experimental: Fluorescence characteristics are shown below.
(§1) Into 1 mL of purified water, Cy5 for labeling 1 mg of protein (manufactured by GE Healthcare Bioscience Biohealth Co., Ltd.), was dissolved. This solution was diluted 200 times with a 50 mM phosphoric acid buffer solution (pH 7.5) to measure OD value (0.1020).
(§2) Concentration of a Cy5 solution was determined from this OD value and molar absorption coefficient (ε=250,000), [described in a general product catalogue 2006 “7-4” of GE Healthcare Bioscience Co., Ltd.]), (0.408 μM). Then fluorescence was measured using the present solution.

[2] = Relative fluorescence intensity, roughly calculated relative to Cy5 per 1 μM as 100; type: physicochemical
Experimental: Relative fluorescence intensity of a compound of the present invention was roughly calculated relative to fluorescence intensity of Cy5, which is a conventional cyanine dye.
First, fluorescence intensity of Cy5 per 1 μM was measured from fluorescence intensity of Cy5, and relative fluorescence intensity of the compound of the present invention was roughly calculated relative to this fluorescence intensity value as 100.
as §1, §2
Relative fluorescence intensities of the compounds (13), (21), (32) and (38) of the present invention were roughly estimated relative to fluorescence intensity of Cy5 per 1 μM, obtained in Example 8, (1), as 100.
Relative fluorescence intensity of a compound of the present invention was roughly calculated based on fluorescence intensity of Cy5, which is a conventional cyanine dye derivative.
First, fluorescence intensity of Cy5 per 1 μM was measured from fluorescence intensity of Cy5, and relative fluorescence intensity of the compound of the present invention was roughly calculated based on this fluorescence intensity value as 100.
Into 1 mL of purified water, Cy5 (manufactured by GE Healthcare Bioscience Biohealth Co., Ltd.) for labeling 1 mg of protein, was dissolved. This solution was diluted 200 times with a 50 mM phosphoric acid buffer solution (pH 7.5) to measure OD value (0.1020).
Concentration of a Cy5 solution was determined from this OD value and molar absorption coefficient (E=250,000, [described in a general product catalogue 2006 “7-4” of GE Healthcare Bioscience Co., Ltd.]), (0.408 μM).
Then fluorescence of Cy5 was measured using the present solution.
Relative fluorescence intensity of the compound (40) of the present invention, obtained in Example 11 and the compound (43) of the present invention, obtained in Example 12 were roughly calculated, relative to fluorescence intensity per 1 μM of Cy5, obtained in Example 14, (1), as 100.

[3] = described in general product catalogue 2006 of GE Healthcare Bioscience; in M-1cm-1; cited from earlier work
[4] = 0.408 μM solution in 50 mM phosphoric acid buffer solution (pH 7.5)
[5] = Cy5 solution 0.408 μM in 50 mM phosphoric acid buffer solution (pH 7.5)

Structure (SMILES): CCN1/C(=C/C=C/C=C/C2=[N+](CCCCCC(=O)O)c3ccc(S(=O)(=O)O)cc3C2(C)C)C(C)(C)c2cc(S(=O)(=O)[O-])ccc21 [Cy5]
- Max. excitation wavelength [Ex(max)] [1, 4]: 649 nm
- Max. fluorescence wavelength [Em(max)] [1, 4]: 670 nm
- Max. excitation wavelength [Ex(max)] [1, 5]: 649 nm
- Max. fluorescence wavelength [Em(max)] [1, 5]: 670 nm
- Fluorescence intensity [2, 5]: 3,161
- Fluorescence intensity of Cy5/1 μM ([2]; per 1 μM, from intensity at 0.408 μM): 7,747
- Fluorescence intensity of Cy5/1 μM ([2]; per 1 μM, from the intensity of the 0.408 μM solution): 7,747
- Relative fluorescence intensity [relative to fluorescence intensity of Cy5 (1 μM) as 100] ([2]; roughly calculated, Cy5 per 1 μM = 100): 100
- Relative fluorescence intensity [relative to fluorescence intensity of Cy5 (1 μM) as 100] ([2]; roughly calculated; Cy5 per 1 μM = 100): 100
- molar absorption coefficient (ε) [3]: 250,000
